According to PubChem BioAssay (NCI):
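Here, GI50 denotes the concentration required for 50% inhibition of growth. Definition used: TGI = concentration required for complete inhibition of growth.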

Columns and labels:
Assay in all cases: NCI-60 cell line screen, 384-well format
[1] = system: HL-60(TB) leukemia
[2] = system: U251 glioblastoma
[3] = system: HCT-15 colon
[4] = system: HCT-116 colon
[5] = system: HOP-62 NSCLC
[6] = system: HS 578T breast
[7] = system: EKVX NSCLC
[8] = system: HT29 colon
[9] = system: RPMI-8226 leukemia
[10] = system: MCF7 breast
[11] = system: SR leukemia
[12] = system: NCI-H23 lung
[13] = system: HOP-92 NSCLC
[14] = system: OVCAR-5 ovarian
[15] = system: SF-268 CNS
[16] = system: OVCAR-3 ovarian
[17] = system: LOX IMVI melanoma
[18] = system: SNB-19 CNS
[19] = system: MOLT-4 leukemia
[20] = system: COLO 205 colon
[21] = system: NCI-H322M lung
[22] = system: SK-MEL-28 melanoma
[23] = system: CCRF-CEM leukemia
[24] = system: RXF 393 renal
[25] = system: NCI-H522 lung
[26] = system: ACHN renal
[27] = system: MALME-3M melanoma
[28] = system: DU-145 prostate
[29] = system: A498 renal
[30] = system: NCI/ADR-RES ovarian
[31] = system: UACC-257 melanoma
[32] = system: SNB-75 CNS
[33] = system: SF-295 CNS
[34] = system: M14 melanoma
[35] = system: K-562 leukemia
[36] = system: OVCAR-8 ovarian
[37] = system: IGROV1 ovarian
[38] = system: SN12C renal
[39] = system: CAKI-1 renal
[40] = system: OVCAR-4 ovarian
[41] = system: PC-3 prostate
[42] = system: NCI-H460 NSCLC
[43] = system: HCC-2998 colon
[44] = system: SF-539 CNS
[45] = system: 786-0 renal
[46] = system: SK-MEL-5 melanoma
[47] = system: T-47D breast
[48] = system: SW-620 colon
[49] = system: SK-OV-3 ovarian
[50] = system: UO-31 renal
[51] = system: NCI-H226 lung
[52] = system: A549 NSCLC
[53] = system: BT-549 breast
[54] = system: MDA-MB-468 breast
[55] = system: MDA-MB-231 breast
[56] = system: KM12 colon
[57] = system: TK-10 renal

Cc1ccccc1CN1CC2=C(CCN(Cc3ccccc3)C2=O)N2CCN=C12
GI50 [1]: 0.186 µM
TGI [1]: 0.547 µM
GI50 [2]: 1.8 µM
TGI [2]: 6.21 µM
GI50 [3]: 1.78 µM
TGI [3]: > 100 µM
GI50 [4]: 1.9 µM
TGI [4]: > 100 µM
GI50 [5]: 1.36 µM
TGI [5]: 7.9 µM
GI50 [6]: 2.23 µM
TGI [6]: 20.2 µM
GI50 [7]: 3.3 µM
TGI [7]: > 100 µM
GI50 [8]: 12 µM
TGI [8]: > 100 µM
GI50 [9]: 0.203 µM
TGI [9]: 0.382 µM
GI50 [10]: 3.12 µM
TGI [10]: > 100 µM
GI50 [11]: 1 µM
TGI [11]: 2.45 µM
GI50 [12]: 2.14 µM
TGI [12]: 7.97 µM
GI50 [13]: 4.3 µM
TGI [13]: > 100 µM
GI50 [14]: 3.5 µM
TGI [14]: > 100 µM
GI50 [15]: 3.99 µM
TGI [15]: > 100 µM
GI50 [16]: 2.06 µM
TGI [16]: 5.71 µM
GI50 [17]: 2.09 µM
TGI [17]: 88.4 µM
GI50 [18]: 2.98 µM
TGI [18]: > 100 µM
GI50 [19]: 1.7 µM
TGI [19]: 3.39 µM
GI50 [20]: 2.88 µM
TGI [20]: 14.1 µM
GI50 [21]: 3.34 µM
TGI [21]: > 100 µM
GI50 [22]: 4.55 µM
TGI [22]: > 100 µM
GI50 [23]: 1.04 µM
TGI [23]: > 100 µM
GI50 [24]: 4.17 µM
TGI [24]: 28 µM
GI50 [25]: 2.38 µM
TGI [25]: 70.9 µM
GI50 [26]: 6.02 µM
TGI [26]: > 100 µM
GI50 [27]: 3.69 µM
TGI [27]: 10.5 µM
GI50 [28]: 3.11 µM
TGI [28]: > 100 µM
GI50 [29]: 4.56 µM
TGI [29]: > 100 µM
GI50 [30]: 1.39 µM
TGI [30]: 7.8 µM
GI50 [31]: 1.13 µM
TGI [31]: 3.11 µM
GI50 [32]: 2.9 µM
TGI [32]: 24.9 µM
GI50 [33]: 0.7 µM
TGI [33]: 3.17 µM
GI50 [34]: 3.28 µM
TGI [34]: > 100 µM
GI50 [35]: 0.631 µM
TGI [35]: > 100 µM
GI50 [36]: 0.796 µM
TGI [36]: > 100 µM
GI50 [37]: 53.8 µM
TGI [37]: > 100 µM
GI50 [38]: 3.45 µM
TGI [38]: > 100 µM
GI50 [39]: 3.97 µM
TGI [39]: > 100 µM
GI50 [40]: 1.08 µM
TGI [40]: 4.99 µM
GI50 [41]: 2.81 µM
TGI [41]: > 100 µM
GI50 [42]: 2.61 µM
TGI [42]: 9.29 µM
GI50 [43]: 2.66 µM
TGI [43]: 22.8 µM
GI50 [44]: 3.54 µM
TGI [44]: 23.3 µM
GI50 [45]: 4.14 µM
TGI [45]: > 100 µM
GI50 [46]: 1.19 µM
TGI [46]: 2.9 µM
GI50 [47]: 2 µM
TGI [47]: 9.66 µM
GI50 [48]: 5.69 µM
TGI [48]: > 100 µM
GI50 [49]: 3.44 µM
TGI [49]: 36.9 µM
GI50 [50]: 5.97 µM
TGI [50]: > 100 µM
GI50 [51]: 3.42 µM
TGI [51]: 63.1 µM
GI50 [52]: 4.2 µM
TGI [52]: > 100 µM
GI50 [53]: 4.06 µM
TGI [53]: 66.4 µM
GI50 [54]: 0.363 µM
TGI [54]: 1.32 µM
GI50 [55]: 2.83 µM
TGI [55]: 9.62 µM
GI50 [56]: 6.87 µM
TGI [56]: > 100 µM
GI50 [57]: 6.47 µM
TGI [57]: > 100 µM
